Measured values taken from patent US5955506A, “Benzamides for neurodegenerative disorder treatment” (priority 1998, dated 1999).

Columns and labels:
striatal dopamine [1] = assay: MPTP dopamine depletion model (mice, sacrificed 72 h after MPTP); assay type: in vivo, C57BL/6J mice; details: for % non-MPTP control (striatal dopamine) / Dopamine/mg protein ± S.E.M.: 30 mg/kg p.o.; for % non-MPTP control (striatal dopamine) / Dopamine, nM/mg ± S.E.M., test compound / Protection, %: 15 mg/kg MPTP model; for Dopamine/mg protein ± S.E.M.: 30 min before 15 mg/kg MPTP s.c.; for prevention of dopamine depletion following MPTP challenge (in words): Table 1 results, 30 mg/kg; for Degree of protection, % (MPTP dopamine depletion test): Table 3, dose not given; for protection from MPTP neurotoxicity, % of control / protection from the neurotoxic action of MPTP (in words): 50 mg/kg; for Dopamine, nM/mg ± S.E.M., test compound / Protection, %: 50 mg/kg p.o.; for Protection, %: versus methyl cellulose control (Standard)
Method: These findings have led to the development of an assay for agents effective in treating dopamine-associated neurodegenerative disorders, such as Parkinson's disease. In this assay, test animals are given an amount of MPTP adequate to severely depress their dopamine levels. Test compounds are administered to determine if they are capable of preventing the loss of dopamine in the test animals. To the extent that dopamine levels are retained, a compound can be considered to be an effective agent for slowing or delaying the course of neurodegenerative disease, e.g., Parkinson's disease. Dopamine Depletion Studies (MPTP Model) C57BL/6J mice were pretreated with either vehicle (1% methyl cellulose) or a drug (p.o.) 30 min before MPTP. MPTP was dissolved in isotonic saline (0.9%) and given subcutaneously as a single dose of 15 mg free base/kg body weight to produce a reduction in striatal dopamine to about 0.5 nanomoles/mg protein. Groups of mice (n=8-10 per group) received either vehicle plus saline, vehicle plus MPTP, or drug plus MPTP. Seventy two hours after receiving MPTP, mice were sacrificed using cervical dislocation and the striata were excised. The tissue was homogenized in 0.4 N perchloric acid, centrifuged, and the supernatant analyzed by high performance liquid chromatography/electro-chemical detection (HPLC/ED) for dopamine levels. Supernatants were stored in a -90° C. freezer between the time of collection and analysis. The drugs were combined with methyl cellulose and were homogenized in water for dosing. The dosage amount ranged from 10 to 50 mg/kg for CPI1160, CPI1189 and CPI1234, and from 50 to 100 mg/kg for CPI1020.

Aβ(1-40) = target: T1, Aβ(1-40) (Homo sapiens, UniProt P05067); assay: Aβ(1-40) β-pleated sheet formation, Thioflavin T fluorescence; assay type: biochemical; details: Aβ(1-40) 3 μg, PBS pH 6.0, 4 hours, read-out: % Protection (β-pleated sheet formation)
T1 construct: aggregated fibrils of synthetic Aβ(1-40)
Excerpt: Effect of Benzamides on Aβ(1-40) β-Pleated Sheets Formation: Detection of Amyloid Aggregation in Solution by Thioflavin T Fluorescence Spectra
Several assays have been developed to assess the activity of compounds as agents for the treatment of Alzheimer's disease.
Thioflavin T (ThT) rapidly associates with β pleated sheets particularly the aggregated fibrils of synthetic Aβ(1-40), giving rise to a new excitation maximum at 440 nm and enhanced emission at 490 nm. According to this principle, agents which could delay or reverse the formation of such association might be of therapeutic benefit.
Experiments were performed in 96 well plates and the fluorescence changes were evaluated using Fluorescence plate reader-CytoFluor II. Briefly, into each well was aliquoted 95 μl of ThT (3 μM) prepared in PBS (pH 6.0), 2 μl of NRT (10 μM) prepared in 0.05% of methylcellulose in PBS (pH 6.0), and 3 μl of Aβ(1-40)(3 μg) prepared with dH2 O. The fluorescence measurement began when Aβ(1-40) was added and continued for 4 hours at which the aggregation reached a plateau. The % protection of β-pleated sheet formation was calculated from the relative fluorescence unit difference between aggregation in the presence and in the absence of test compounds.

[2] = In vivo biotransformation of CPI1020 (metabolite in blood after oral administration); details: rats and mice, CPI1020 administered orally
Excerpt: Commonly owned U.S. Pat. No. 5,472,983, referred to above, discloses several benzamides useful in treating neurodegenerative diseases based on their protective action in the MPTP mouse model of Parkinson's disease. […] This compound is likely formed in the body by reduction of the ring nitro of CPI1020 to an amino moiety (CPI1160) followed by acetylation of the amino function.

striatal dopamine [3] = assay: Long term protective effect test in the MPTP model (sacrifice 3 or 14 days after dosing); assay type: in vivo, C57BL/6J mice
Method: C57BL/6J mice were pretreated with either vehicle (1% methyl cellulose) or a drug (p.o.) 30 min before MPTP. MPTP was dissolved in isotonic saline (0.9%) and given subcutaneously as a single dose of 15 mg free base/kg body weight to produce a reduction in striatal dopamine to about 0.5 nanomoles/mg protein. Groups of mice (n=8-10 per group) received either vehicle plus saline, vehicle plus MPTP, or drug plus MPTP. Seventy two hours after receiving MPTP, mice were sacrificed using cervical dislocation and the striata were excised. The tissue was homogenized in 0.4 N perchloric acid, centrifuged, and the supernatant analyzed by high performance liquid chromatography/electro-chemical detection (HPLC/ED) for dopamine levels. Supernatants were stored in a -90° C. freezer between the time of collection and analysis.
Additional studies were carried out to determine the long-term effect on dopamine depletion of the compounds of the invention. Using the general test method described above, C57BL/6J mice were pretreated with either vehicle or test compound and MPTP and then sacrificed either 3 or 14 days after dosing.

striatal dopamine [4] = assay: 6-Hydroxydopamine dopamine depletion model; assay type: in vivo, male Sprague Dawley rats; details: for Test side as percent of control side: right striatum injected with 6-hydroxydopamine
Method: Another assay for agents effective in treating dopamine-associated neurodegenerative disorders has been developed. In this assay, the striatum of test animals is injected with the neurotoxicant, 6-hydroxydopamine. 6-Hydroxydopamine has a dopamine-depleting action and is widely accepted as a model for these conditions. Test compounds are administered to determine if they are capable of preventing or reducing the loss of dopamine in the test animals. Again, to the extent that dopamine levels are retained, a compound can be considered an effective agent.
Tests were conducted to assess the ability of CPI-1189 to protect against 6-hydroxydopamine-induced damage. This is a widely accepted model for Parkinson's disease in which 6-hydroxydopamine is believed to produce its toxic effects by inducing oxidative stress. 6-hydroxydopamine has been used extensively since the 1960's as a neurotoxicant. Because 6-hydroxydopamine primarily affects catecholaminergic neurons, it has been mainly used for the experimental study of Parkinson's disease. The compound has had widespread use as a means of administering unilateral lesions in the nigrastriatal system. Animals treated with this toxin show biochemical and behavioral alterations that can be measured and probed pharmacologically to assess both the severity of the lesion and to determine the effect of potential therapeutic interventions.
The protective dose response of CPI-1189 to 6-hydroxydopamine-induced damage to the nigrastriatal system was determined. Damage to the nigrastriatal system was measured in terms of striatal dopamine levels.
Acclimated male Sprague Dawley rats, 55 to 120 days of age were used.
6-hydroxy-dopamine (Research Biochemicals Incorporated) was prepared in a 0.9% NaCl solution containing 0.1 mg/ml ascorbic acid on the morning of the experiment. […]
Immediately following sacrifice, dissected striatal tissue was collected and analyzed by HPLC/EC […] with the results shown in Table 5.

T1 sequence (P05067 672-711 limits assumed): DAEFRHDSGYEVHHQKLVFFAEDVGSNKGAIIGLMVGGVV

Row | Compound | % non-MPTP control (striatal dopamine) (striatal dopamine [1]) [%] | Dopamine/mg protein ± S.E.M. (striatal dopamine [1]) | prevention of dopamine depletion following MPTP challenge (in words) (striatal dopamine [1]) | Degree of protection, % (MPTP dopamine depletion test) (striatal dopamine [1]) [%] | inhibition at 10 µM (Aβ(1-40)) [%] | further results
1 | CC(C)(C)NC(=O)c1ccc(N)cc1 [CPI1160, N-tert-butyl4-aminobenzamide] | 93.9 | 1.25 ± .05 /MG PROTEIN | effective in preventing dopamine depletion | 94 | – | –
2 | CCC(C)(C)NC(=O)c1ccc(NC(C)=O)cc1 [CPI1233, N-tert-amyl-4-acetamidobenzamide] | – | – | – | 40 | – | –
3 | CC(=O)Nc1ccc(C(=O)NC(C)C)cc1 [CPI1232, N-iso-propyl-4-acetamidobenzamide] | – | – | – | 70 | – | –
4 | N-methylcyclopropyl-4-acetamidobenzamide [CPI1241] | – | – | – | 40 | – | –
5 | CC(=O)Nc1cccc(C(=O)NC(C)(C)C)c1 [CPI1234, N-tert-butyl-3-acetamidobenzamide] | 76.7 | 1.02 ± .05 /MG PROTEIN | effective in preventing dopamine depletion | 77 | – | –
6 | CC(=O)Nc1ccc(C(=O)NC(C)(C)C)cc1 [CPI1189, N-tert-butyl-4-acetamidobenzamide] | 89.7 | 1.37 ± .14 /MG PROTEIN | effective in preventing dopamine depletion | – | 48.3 ± 10.1 | protection from MPTP neurotoxicity, % of control (striatal dopamine [1]): 105 % of control; protection from the neurotoxic action of MPTP (in words) (striatal dopamine [1]): complete protection; Dopamine, nM/mg ± S.E.M., test compound (striatal dopamine [1]): 1.57 ± .11 nM/mg; Protection, % (striatal dopamine [1]): 105%; potency relative to CPI1020 in protecting mice from dopamine reduction in the striatum (striatal dopamine [1]; s.c. MPTP): approximately 10 times; in vivo biotransformation product of CPI1020 found in blood (in words) [2]: found in the blood of rats and mice; Striatal dopamine, percent of methyl cellulose/saline control (striatal dopamine [3]; 3 Day Sac): 100%; Striatal dopamine, percent of methyl cellulose/saline control (striatal dopamine [3]; 14 Day Sac): 96.7%; protection against MPTP induced dopamine depletion (in words) (striatal dopamine [3]; sacrificed three days and fourteen days post MPTP): able to protect against MPTP induced dopamine depletion; Test side as percent of control side (striatal dopamine [4]; 50 mg/kg oral): 72.82 ± 8.32%; Test side as percent of control side (striatal dopamine [4]; 100 mg/kg oral): 77.61 ± 13.5%; protection against 6-hydroxydopamine induced dopamine depletion (in words) (striatal dopamine [4]; rat, in vivo): able to protect against 6-hydroxydopamine induced dopamine depletion
7 | CC(C)NC(=O)c1ccc([N+](=O)[O-])cc1 [CPI1026, N-iso-propyl-4-nitrobenzamide] | – | – | – | – | 14.4 ± 14.4 | –
8 | CCC(C)(C)NC(=O)c1ccc([N+](=O)[O-])cc1 [CPI1033, N-tert-amyl-4-nitrobenzamide] | – | – | – | – | 31.7 ± 3.5 | –
9 | CC(C)(C)NC(=O)c1ccc([N+](=O)[O-])cc1 [CPI1020, N-tert-butyl-4-nitrobenzamide, reference compound] | – | – | – | – | – | protection from MPTP neurotoxicity, % of control (striatal dopamine [1]): 56 % of control; protection from the neurotoxic action of MPTP (in words) (striatal dopamine [1]): not as effective; Dopamine, nM/mg ± S.E.M., test compound (striatal dopamine [1]): 0.58 ± .14 nM/mg; Protection, % (striatal dopamine [1]): 56%
